Measured values: ChEMBL document CHEMBL5291721, “A preclinical secondary pharmacology resource illuminates target-adverse drug reaction associations of marketed drugs” (Nat Commun, 2023)

Columns and labels:
[1] = molecular target: Cannabinoid receptor 1 (Homo sapiens, UniProt P21554); assay type: functional, cell-based
[2] = molecular target: T1, Peroxisome proliferator-activated receptor gamma (Homo sapiens, UniProt P37231); assay type: functional
T1 sequence (P37231 whole entry): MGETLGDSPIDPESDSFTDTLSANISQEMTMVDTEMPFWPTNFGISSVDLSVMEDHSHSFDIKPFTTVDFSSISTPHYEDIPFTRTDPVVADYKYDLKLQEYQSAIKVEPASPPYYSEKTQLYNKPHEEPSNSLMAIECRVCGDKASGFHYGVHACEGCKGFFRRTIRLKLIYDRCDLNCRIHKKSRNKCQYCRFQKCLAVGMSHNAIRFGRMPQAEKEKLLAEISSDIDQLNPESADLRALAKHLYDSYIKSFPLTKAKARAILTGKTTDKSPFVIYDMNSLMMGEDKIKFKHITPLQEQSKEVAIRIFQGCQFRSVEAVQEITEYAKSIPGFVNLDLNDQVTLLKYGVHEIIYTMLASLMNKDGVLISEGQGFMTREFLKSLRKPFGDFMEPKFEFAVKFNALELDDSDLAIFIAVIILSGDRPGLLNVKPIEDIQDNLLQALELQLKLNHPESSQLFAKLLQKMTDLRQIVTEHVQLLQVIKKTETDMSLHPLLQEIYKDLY

[3] = molecular target: T2, Alpha-1A adrenergic receptor (Homo sapiens, UniProt P35348)
T2 sequence (P35348 whole entry): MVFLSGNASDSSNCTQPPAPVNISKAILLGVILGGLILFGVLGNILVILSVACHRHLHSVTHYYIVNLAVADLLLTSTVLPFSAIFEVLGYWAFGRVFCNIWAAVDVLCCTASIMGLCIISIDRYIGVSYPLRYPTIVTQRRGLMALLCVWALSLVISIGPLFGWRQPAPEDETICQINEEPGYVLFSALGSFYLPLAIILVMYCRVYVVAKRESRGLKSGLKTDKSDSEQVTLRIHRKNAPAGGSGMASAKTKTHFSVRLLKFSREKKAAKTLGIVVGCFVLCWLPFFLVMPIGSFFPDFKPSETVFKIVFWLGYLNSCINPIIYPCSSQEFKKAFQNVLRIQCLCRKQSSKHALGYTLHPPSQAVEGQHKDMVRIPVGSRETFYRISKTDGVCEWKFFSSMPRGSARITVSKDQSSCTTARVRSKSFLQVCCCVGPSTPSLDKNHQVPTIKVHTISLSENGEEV

[4] = molecular target: T3, Neuropeptide Y receptor type 2 (Homo sapiens, UniProt P49146)
T3 sequence (P49146 whole entry): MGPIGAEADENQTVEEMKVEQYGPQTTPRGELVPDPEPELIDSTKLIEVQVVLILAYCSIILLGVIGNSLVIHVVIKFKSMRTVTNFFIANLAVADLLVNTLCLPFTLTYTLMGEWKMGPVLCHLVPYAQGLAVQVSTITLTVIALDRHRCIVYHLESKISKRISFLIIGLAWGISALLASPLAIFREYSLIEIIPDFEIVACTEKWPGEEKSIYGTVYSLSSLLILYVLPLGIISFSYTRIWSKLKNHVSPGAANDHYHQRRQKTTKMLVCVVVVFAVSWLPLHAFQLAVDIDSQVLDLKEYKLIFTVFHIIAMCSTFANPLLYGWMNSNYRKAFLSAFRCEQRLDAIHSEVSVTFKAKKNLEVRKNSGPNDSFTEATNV

[5] = molecular target: T4, Estrogen receptor (Homo sapiens, UniProt P03372)
T4 sequence (P03372 whole entry): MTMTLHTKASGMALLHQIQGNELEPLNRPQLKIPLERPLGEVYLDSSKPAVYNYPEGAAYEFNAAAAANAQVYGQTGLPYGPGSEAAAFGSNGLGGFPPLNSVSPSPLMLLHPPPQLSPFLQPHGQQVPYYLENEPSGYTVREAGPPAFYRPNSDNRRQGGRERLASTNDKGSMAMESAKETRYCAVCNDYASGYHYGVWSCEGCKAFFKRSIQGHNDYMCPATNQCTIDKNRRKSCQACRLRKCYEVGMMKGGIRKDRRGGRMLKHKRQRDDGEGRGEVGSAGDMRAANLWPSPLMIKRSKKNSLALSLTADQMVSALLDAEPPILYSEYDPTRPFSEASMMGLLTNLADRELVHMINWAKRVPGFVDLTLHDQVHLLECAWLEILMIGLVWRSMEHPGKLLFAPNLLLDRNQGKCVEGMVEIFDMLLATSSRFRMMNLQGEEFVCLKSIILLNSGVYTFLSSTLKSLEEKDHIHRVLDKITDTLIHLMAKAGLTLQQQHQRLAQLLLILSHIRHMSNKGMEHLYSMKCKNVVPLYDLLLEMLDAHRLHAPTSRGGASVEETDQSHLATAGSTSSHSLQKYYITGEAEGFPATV

[6] = molecular target: T5, Androgen receptor (Homo sapiens, UniProt P10275)
T5 sequence (P10275 whole entry): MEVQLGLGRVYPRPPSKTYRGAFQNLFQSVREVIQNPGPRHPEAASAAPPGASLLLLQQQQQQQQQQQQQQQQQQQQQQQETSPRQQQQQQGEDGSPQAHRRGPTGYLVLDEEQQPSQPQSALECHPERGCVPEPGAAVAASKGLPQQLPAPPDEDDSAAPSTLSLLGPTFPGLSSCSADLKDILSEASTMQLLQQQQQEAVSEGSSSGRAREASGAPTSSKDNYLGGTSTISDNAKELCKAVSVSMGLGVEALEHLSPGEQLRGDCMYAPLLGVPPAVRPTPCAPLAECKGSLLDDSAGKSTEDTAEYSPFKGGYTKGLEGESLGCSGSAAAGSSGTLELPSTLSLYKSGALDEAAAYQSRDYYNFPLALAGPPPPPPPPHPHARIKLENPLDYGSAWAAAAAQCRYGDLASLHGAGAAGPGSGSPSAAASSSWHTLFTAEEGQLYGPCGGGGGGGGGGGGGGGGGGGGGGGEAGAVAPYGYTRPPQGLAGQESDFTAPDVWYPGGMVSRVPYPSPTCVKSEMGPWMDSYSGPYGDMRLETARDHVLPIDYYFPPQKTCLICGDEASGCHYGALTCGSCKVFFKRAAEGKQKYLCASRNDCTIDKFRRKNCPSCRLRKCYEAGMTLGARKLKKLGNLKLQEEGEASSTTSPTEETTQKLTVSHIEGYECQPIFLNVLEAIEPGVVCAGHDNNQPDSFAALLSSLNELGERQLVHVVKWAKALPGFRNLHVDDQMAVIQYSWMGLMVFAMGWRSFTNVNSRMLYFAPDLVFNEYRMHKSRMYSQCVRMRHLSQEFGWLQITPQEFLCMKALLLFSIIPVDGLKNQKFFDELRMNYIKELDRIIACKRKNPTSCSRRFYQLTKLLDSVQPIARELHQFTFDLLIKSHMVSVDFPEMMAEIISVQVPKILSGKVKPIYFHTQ
Note: assay procedure not described here.

Sequence of Cannabinoid receptor 1 (P21554 whole entry): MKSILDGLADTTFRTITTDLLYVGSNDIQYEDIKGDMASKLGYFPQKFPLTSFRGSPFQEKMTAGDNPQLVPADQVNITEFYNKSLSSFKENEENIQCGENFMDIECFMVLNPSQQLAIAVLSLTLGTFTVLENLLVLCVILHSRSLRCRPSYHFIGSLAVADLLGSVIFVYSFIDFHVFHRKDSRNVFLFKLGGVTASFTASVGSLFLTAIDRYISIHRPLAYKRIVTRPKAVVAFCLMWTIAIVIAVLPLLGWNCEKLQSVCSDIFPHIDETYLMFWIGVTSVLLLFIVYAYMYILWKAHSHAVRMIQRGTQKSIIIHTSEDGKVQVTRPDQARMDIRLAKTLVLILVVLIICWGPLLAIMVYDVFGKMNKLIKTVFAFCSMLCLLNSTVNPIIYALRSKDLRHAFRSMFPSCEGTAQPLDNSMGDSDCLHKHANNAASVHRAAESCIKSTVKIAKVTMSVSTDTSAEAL

Structure (SMILES)	AC50 [1] [µM]	AC50 [2] [µM]	AC50 [3] [µM]	AC50 [4] [µM]	AC50 [5] [µM]	AC50 [6] [µM]
CC(=N)N1CC[C@H](SC2=C(C(=O)O)N3C(=O)[C@H]([C@@H](C)O)[C@H]3C2)C1	> 300	> 300	–	–	–	–
CC1(C)S[C@@H]2[C@H](NC(=O)[C@H](N)c3ccc(O)cc3)C(=O)N2[C@H]1C(=O)O [AMOXICILLIN]	–	–	> 10	> 30	–	–
CO/N=C(\C(=O)N[C@@H]1C(=O)N2C(C(=O)O)=C(COC(N)=O)CS[C@H]12)c1ccco1 [CEFUROXIME]	> 30	> 30	–	–	–	–
Clc1cccc(Cl)c1N=C1NCCN1 [CLONIDINE]	> 30	–	–	> 30	–	–
COC(=O)[C@H](c1ccccc1Cl)N1CCc2sccc2C1 [CLOPIDOGREL]	> 30	> 30	> 10	> 30	–	–
CN1C[C@H](C(=O)N[C@]2(C)O[C@@]3(O)[C@@H]4CCCN4C(=O)[C@H](Cc4ccccc4)N3C2=O)C[C@@H]2c3cccc4[nH]cc(c34)C[C@H]21 [DIHYDROERGOTAMINE]	> 30	–	0.0376	> 30	–	–
C#Cc1cccc(Nc2ncnc3cc(OCCOC)c(OCCOC)cc23)c1 [ERLOTINIB]	> 10	> 30	–	–	> 30	–
CC1(C)O[C@@H]2C[C@H]3[C@@H]4C[C@H](F)C5=CC(=O)C=C[C@]5(C)[C@H]4[C@@H](O)C[C@]3(C)[C@]2(C(=O)CO)O1 [FLUNISOLIDE]	> 30	> 30	–	–	–	–
C[C@H]1Oc2cc(cnc2N)-c2c(nn(C)c2C#N)CN(C)C(=O)c2ccc(F)cc21 [LORLATINIB]	> 30	> 30	–	–	–	–
Cc1cnc(NC(=O)C2=C(O)c3ccccc3S(=O)(=O)N2C)s1 [MELOXICAM]	> 30	–	> 10	> 30	–	–
CN(C)c1cc(CNCC(C)(C)C)c(O)c2c1C[C@H]1C[C@H]3[C@H](N(C)C)C(O)=C(C(N)=O)C(=O)[C@@]3(O)C(O)=C1C2=O [OMADACYCLINE]	> 30	> 30	–	–	> 30	> 30
COc1ccnc(C[S+]([O-])c2nc3ccc(OC(F)F)cc3[nH]2)c1OC (stereo not given) [PANTOPRAZOLE]	> 30	–	10.6	> 30	–	–
CNC[C@H](O)c1cccc(O)c1 [PHENYLEPHRINE]	> 30	–	–	> 30	–	–
O=C1NC(=O)C(c2ccccc2)(c2ccccc2)N1 [PHENYTOIN]	> 30	> 30	> 10	> 30	–	–
CC(C)C[C@H](CN)CC(=O)O [PREGABALIN]	> 30	> 30	–	> 30	–	–
CCOc1cc(CC(=O)N[C@@H](CC(C)C)c2ccccc2N2CCCCC2)ccc1C(=O)O [REPAGLINIDE]	> 30	> 30	–	–	–	–
CCCN(CCC)CCc1cccc2c1CC(=O)N2 [ROPINIROLE]	> 30	> 30	> 10	> 30	–	–
CCCN(CCc1cccs1)[C@H]1CCc2c(O)cccc2C1 [ROTIGOTINE]	20	> 30	–	–	–	–
CC[C@H]1OC(=O)[C@H](C)[C@@H](O[C@H]2C[C@@](C)(OC)[C@@H](O)[C@H](C)O2)[C@H](C)[C@@H](O[C@@H]2O[C@H](C)C[C@H](N(C)C)[C@H]2O)[C@](C)(O)C[C@@H](C)/C(=N\OCOCCOC)[C@H](C)[C@@H](O)[C@]1(C)O [ROXITHROMYCIN]	> 30	> 30	–	–	–	–
CC(=O)S[C@@H]1CC2=CC(=O)CC[C@]2(C)[C@H]2CC[C@@]3(C)[C@@H](CC[C@@]34CCC(=O)O4)[C@H]12 [SPIRONOLACTONE]	> 30	> 30	10.4	> 30	–	–
CCCCNc1ccc(C(=O)OCCN(C)C)cc1 [TETRACAINE]	> 30	–	> 10	> 30	–	–
Cn1c(=O)c2[nH]cnc2n(C)c1=O [THEOPHYLLINE]	> 30	–	> 10	> 30	–	–
CC1(C)O[C@@H]2[C@@H](CO[C@@]3(COS(N)(=O)=O)OC(C)(C)O[C@@H]23)O1 [TOPIRAMATE]	> 30	–	> 10	> 30	> 30	–
